Laboratory results: patent US20230406885A1, “CYCLIC PEPTIDES FOR TRAPPING INTERLEUKIN-1 BETA” (MERCK SHARP & DOHME LLC, priority 2022, published 2023)
*1 amine or outer side, *2 acyl side, *3 side chain or, on linkers, in order; H or OH if unused. Where a SMILES comes first, the peptide text is derived from it. [ ]: non-standard residue; d: D form. Phe(4-(trans-4-COOH-cHex)) = N[C@@H](Cc1ccc([C@H]2CC[C@H](C(=O)O)CC2)cc1)C(=O)O; Phe(4-(cis-4-COOH-cHex)) = N[C@@H](Cc1ccc([C@H]2CC[C@@H](C(=O)O)CC2)cc1)C(=O)O; Trp(βS-Me,4-F) = C[C@@H](c1c[nH]c2cccc(F)c12)[C@H](N)C(=O)O; Bip(4'-COOH) = N[C@@H](Cc1ccc(-c2ccc(C(=O)O)cc2)cc1)C(=O)O; X6 = O=C(O)C12CC(c3ccc(C[C@H](N[*:1])C(=O)[*:2])cc3)(C1)C2; X1 = CC(=O)N1CCN(c2ccc(C[C@H](N[*:1])C(=O)[*:2])cn2)CC1; 1Nal(3S-Me) = C[C@@H](c1cccc2ccccc12)[C@H](N)C(=O)O; Ala(indazol-1-yl) = N[C@@H](Cn1ncc2ccccc21)C(=O)O; Trp(6-Cl) = N[C@@H](Cc1c[nH]c2cc(Cl)ccc12)C(=O)O; Phe(4-COOH) = N[C@@H](Cc1ccc(C(=O)O)cc1)C(=O)O; Trp(6-F) = N[C@@H](Cc1c[nH]c2cc(F)ccc12)C(=O)O; Trp(7-F) = N[C@@H](Cc1c[nH]c2c(F)cccc12)C(=O)O; Trp(7-Me) = Cc1cccc2c(C[C@H](N)C(=O)O)c[nH]c12; h3Pal(5-CN) = N#Cc1cncc(CC[C@H](N)C(=O)O)c1; Pro(4R-NH2) = N[C@H]1CN[C@H](C(=O)O)C1; hTyr = N[C@@H](CCc1ccc(O)cc1)C(=O)O; hCha = N[C@@H](CCC1CCCCC1)C(=O)O; 4Pal = N[C@@H](Cc1ccncc1)C(=O)O; Cha = N[C@@H](CC1CCCCC1)C(=O)O; dDab = NCC[C@@H](N)C(=O)O; dNMeA = CN[C@H](C)C(=O)O

Molecular target: T1, Recombinant human IL-1β (Homo sapiens, UniProt P01584)
T1 construct: purchased BioLegend 579404
Test: IL-6 assay in MRC5 cells: inhibition of IL-1β induced IL-6 secretion (AlphaLISA)
Assay type: cell-based
Settings: inhibition of IL-1β induced IL-6 secretion in MRC5 cells; read-out: MRC5 IC50
Outline: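 IL-1β at 2×EC80 in seeding medium (EMEM, 0.025% BSA) preincubated 1 h at ambient temperature with compound, then 3000 MRC5 cells/well added and incubated overnight at 37 °C, 5% CO2. IL-6 in conditioned medium quantified by AlphaLISA; IC50 from 4-parameter logistic fit.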

T1 sequence (P01584 117-269): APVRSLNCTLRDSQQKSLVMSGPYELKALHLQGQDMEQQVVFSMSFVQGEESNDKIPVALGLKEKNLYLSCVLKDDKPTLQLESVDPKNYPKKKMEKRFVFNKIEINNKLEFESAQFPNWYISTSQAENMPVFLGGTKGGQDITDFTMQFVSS

Structure (SMILES) | IC50 [nM]
CC(=O)N1CCN(c2ccc(C[C@@H]3NC(=O)[C@H](CCc4cncc(C#N)c4)NC(=O)[C@@H](C)NC(=O)[C@H](CC(C)C)NC(=O)[C@H](CCC(N)=O)NC(=O)[C@H](Cc4ccc(-c5ccc(C(=O)O)cc5)cc4)NC(=O)CNC(=O)[C@@H](C)N(C)C(=O)[C@H](CC(=O)O)NC(=O)[C@H]([C@@H](C)c4cccc5ccccc45)NC(=O)[C@@H]4C[C@@H](N)CN4C(=O)CNC(=O)[C@H](Cc4ccc(C(=O)O)cc4)NC(=O)[C@H](Cc4c[nH]c5ccccc45)NC3=O)cn2)CC1 [Example 183] (cyclo([X1]W[Phe(4-COOH)]G[Pro(4R-NH2)][1Nal(3S-Me)]D[dNMeA]G[Bip(4'-COOH)]QL[dA][h3Pal(5-CN)])) | 0.013
CC(C)C[C@@H]1NC(=O)[C@H](CCCCN)NC(=O)[C@H](Cc2ccc(-c3ccc(C(=O)O)cc3)cc2)NC(=O)CNC(=O)[C@@H](C)N(C)C(=O)[C@H](CC(=O)O)NC(=O)[C@H]([C@@H](C)c2c[nH]c3cccc(F)c23)NC(=O)[C@@H]2C[C@@H](N)CN2C(=O)CNC(=O)[C@H](Cc2ccc(C(=O)O)cc2)NC(=O)[C@H](Cc2c[nH]c3cc(Cl)ccc23)NC(=O)[C@H](Cc2ccc(-c3ccc(C(=O)O)cc3)cc2)NC(=O)[C@H](CCc2ccc(O)cc2)NC(=O)[C@@H](C)NC1=O [Example 184] (cyclo([Bip(4'-COOH)][Trp(6-Cl)][Phe(4-COOH)]G[Pro(4R-NH2)][Trp(βS-Me,4-F)]D[dNMeA]G[Bip(4'-COOH)]KL[dA][hTyr])) | 0.018
CC(C)C[C@@H]1NC(=O)[C@H](CCCCN)NC(=O)[C@H](Cc2ccc(-c3ccc(C(=O)O)cc3)cc2)NC(=O)CNC(=O)[C@@H](C)N(C)C(=O)[C@H](CC(=O)O)NC(=O)[C@H]([C@@H](C)c2c[nH]c3cccc(F)c23)NC(=O)[C@@H]2C[C@@H](N)CN2C(=O)CNC(=O)[C@H](Cc2ccc(C(=O)O)cc2)NC(=O)[C@H](Cc2c[nH]c3c(F)cccc23)NC(=O)[C@H](Cc2ccc(-c3ccc(C(=O)O)cc3)cc2)NC(=O)[C@H](CCc2ccc(O)cc2)NC(=O)[C@@H](C)NC1=O [Example 185] (cyclo([Bip(4'-COOH)][Trp(7-F)][Phe(4-COOH)]G[Pro(4R-NH2)][Trp(βS-Me,4-F)]D[dNMeA]G[Bip(4'-COOH)]KL[dA][hTyr])) | 0.024
Cc1cccc2c(C[C@@H]3NC(=O)[C@H](Cc4ccc(-c5ccc(C(=O)O)cc5)cc4)NC(=O)[C@H](CCc4ccc(O)cc4)NC(=O)[C@@H](C)NC(=O)[C@H](CC(C)C)NC(=O)[C@H](CCCCN)NC(=O)[C@H](Cc4ccc(-c5ccc(C(=O)O)cc5)cc4)NC(=O)CNC(=O)[C@@H](C)N(C)C(=O)[C@H](CC(=O)O)NC(=O)[C@H]([C@@H](C)c4c[nH]c5cccc(F)c45)NC(=O)[C@@H]4C[C@@H](N)CN4C(=O)CNC(=O)[C@H](Cc4ccc(C(=O)O)cc4)NC3=O)c[nH]c12 [Example 186] (cyclo([Bip(4'-COOH)][Trp(7-Me)][Phe(4-COOH)]G[Pro(4R-NH2)][Trp(βS-Me,4-F)]D[dNMeA]G[Bip(4'-COOH)]KL[dA][hTyr])) | 0.038
CC(=O)NCCCC[C@H]1NC(=O)[C@H](CC(C)C)NC(=O)[C@H](CCCCN)NC(=O)[C@H](Cc2ccc(-c3ccc(C(=O)O)cc3)cc2)NC(=O)CNC(=O)[C@@H](C)N(C)C(=O)[C@H](CC(=O)O)NC(=O)[C@H]([C@@H](C)c2c[nH]c3cccc(F)c23)NC(=O)[C@@H]2C[C@@H](N)CN2C(=O)CNC(=O)[C@H](Cc2ccc(C(=O)O)cc2)NC(=O)[C@H](Cc2c[nH]c3ccccc23)NC(=O)[C@H](Cc2ccc(-c3ccc(C(=O)O)cc3)cc2)NC(=O)[C@H](CCc2ccc(O)cc2)NC1=O [Example 187] (cyclo([Bip(4'-COOH)]W[Phe(4-COOH)]G[Pro(4R-NH2)][Trp(βS-Me,4-F)]D[dNMeA]G[Bip(4'-COOH)]KL[dK](Ac)[hTyr])) | 0.009
C[C@@H]1C(=O)NCC(=O)N[C@@H](Cc2ccc(-c3ccc(C(=O)O)cc3)cc2)C(=O)N[C@@H](Cn2ncc3ccccc32)C(=O)NCC(=O)N[C@H](CCN)C(=O)N[C@@H](CCC2CCCCC2)C(=O)N[C@@H](Cc2ccc(C34CC(C(=O)O)(C3)C4)cc2)C(=O)N[C@@H](Cc2c[nH]c3ccccc23)C(=O)N[C@@H](Cc2ccc(C(=O)O)cc2)C(=O)NCC(=O)N2C[C@H](N)C[C@H]2C(=O)N[C@@H]([C@@H](C)c2cccc3ccccc23)C(=O)N[C@@H](CC(=O)O)C(=O)N1C [Example 188] (cyclo([X6]W[Phe(4-COOH)]G[Pro(4R-NH2)][1Nal(3S-Me)]D[dNMeA]G[Bip(4'-COOH)][Ala(indazol-1-yl)]G[dDab][hCha])) | 0.016

Now from value to compound:

IC50 [nM] | Structure (SMILES)
0.019 | C[C@@H]1C(=O)NCC(=O)N[C@@H](Cc2ccc(-c3ccc(C(=O)O)cc3)cc2)C(=O)N[C@@H](CC2CCCCC2)C(=O)NCC(=O)N[C@H](CCN)C(=O)N[C@@H](CCC2CCCCC2)C(=O)N[C@@H](Cc2ccc(C34CC(C(=O)O)(C3)C4)cc2)C(=O)N[C@@H](Cc2c[nH]c3ccccc23)C(=O)N[C@@H](Cc2ccc(C(=O)O)cc2)C(=O)NCC(=O)N2C[C@H](N)C[C@H]2C(=O)N[C@@H]([C@@H](C)c2cccc3ccccc23)C(=O)N[C@@H](CC(=O)O)C(=O)N1C [Example 189] (cyclo([X6]W[Phe(4-COOH)]G[Pro(4R-NH2)][1Nal(3S-Me)]D[dNMeA]G[Bip(4'-COOH)][Cha]G[dDab][hCha]))
0.018 | C[C@@H]1C(=O)NCC(=O)N[C@@H](Cc2ccc(-c3ccc(C(=O)O)cc3)cc2)C(=O)N[C@@H](CC2CCCCC2)C(=O)NCC(=O)N[C@H](CCN)C(=O)N[C@@H](CCc2ccc(O)cc2)C(=O)N[C@@H](Cc2ccc(C34CC(C(=O)O)(C3)C4)cc2)C(=O)N[C@@H](Cc2c[nH]c3ccccc23)C(=O)N[C@@H](Cc2ccc(C(=O)O)cc2)C(=O)NCC(=O)N2C[C@H](N)C[C@H]2C(=O)N[C@@H]([C@@H](C)c2cccc3ccccc23)C(=O)N[C@@H](CC(=O)O)C(=O)N1C [Example 190] (cyclo([X6]W[Phe(4-COOH)]G[Pro(4R-NH2)][1Nal(3S-Me)]D[dNMeA]G[Bip(4'-COOH)][Cha]G[dDab][hTyr]))
0.019 | C[C@@H]1C(=O)NCC(=O)N[C@@H](Cc2ccc(-c3ccc(C(=O)O)cc3)cc2)C(=O)N[C@@H](Cc2ccncc2)C(=O)NCC(=O)N[C@H](CCN)C(=O)N[C@@H](CCC2CCCCC2)C(=O)N[C@@H](Cc2ccc([C@H]3CC[C@@H](C(=O)O)CC3)cc2)C(=O)N[C@@H](Cc2c[nH]c3ccccc23)C(=O)N[C@@H](Cc2ccc(C(=O)O)cc2)C(=O)NCC(=O)N2C[C@H](N)C[C@H]2C(=O)N[C@@H]([C@@H](C)c2cccc3ccccc23)C(=O)N[C@@H](CC(=O)O)C(=O)N1C [Example 191] (cyclo([Phe(4-(cis-4-COOH-cHex))]W[Phe(4-COOH)]G[Pro(4R-NH2)][1Nal(3S-Me)]D[dNMeA]G[Bip(4'-COOH)][4Pal]G[dDab][hCha]))
0.015 | C[C@@H]1C(=O)NCC(=O)N[C@@H](Cc2ccc(-c3ccc(C(=O)O)cc3)cc2)C(=O)N[C@@H](Cc2ccncc2)C(=O)NCC(=O)N[C@H](CCN)C(=O)N[C@@H](CCC2CCCCC2)C(=O)N[C@@H](Cc2ccc([C@H]3CC[C@H](C(=O)O)CC3)cc2)C(=O)N[C@@H](Cc2c[nH]c3cc(F)ccc23)C(=O)N[C@@H](Cc2ccc(C(=O)O)cc2)C(=O)NCC(=O)N2C[C@H](N)C[C@H]2C(=O)N[C@@H]([C@@H](C)c2cccc3ccccc23)C(=O)N[C@@H](CC(=O)O)C(=O)N1C [Example 192] (cyclo([Phe(4-(trans-4-COOH-cHex))][Trp(6-F)][Phe(4-COOH)]G[Pro(4R-NH2)][1Nal(3S-Me)]D[dNMeA]G[Bip(4'-COOH)][4Pal]G[dDab][hCha]))
